Data: patent US8680145B1, “Compositions and methods for treatment of fear of medical procedures” (priority 2013, dated 2014)

Assays:
[1] = tested on: subject with dental phobia; assay: Routine dental checkup (cleaning and examination) of a subject with dental phobia after proglumide (Example 1); format: in vivo, human
Excerpt: Proglumide was obtained from commercial suppliers and/or pharmacies, and loaded into capsules. A subject with dental phobia, who had not been to a dentist in many years, agreed to undergo a routine dental checkup visit (cleaning and examination), and to take proglumide prior to the dental visit. […] Furthermore, the subject was willing to return for a follow-up visit within one week in order to replace an aged filling, a procedure that was not deemed urgent and easily could have been delayed.

[2] = tested on: subject with dental phobia; assay: Replacement of an aged metal filling in the same subject after proglumide (Example 2); format: in vivo, human; settings: capsule 200 mg proglumide 90 minutes prior; local anesthetic given by dentist
Description: Proglumide was obtained from commercial suppliers and/or pharmacies, and loaded into capsules. The same subject as in Example 1 returned to the dentist five days after the dental checkup of Example 1 in order to replace an aged metal filling. Again, proglumide was administered to the subject in advance of the appointment. […] The dentist administered a local anesthetic (e.g., lidocaine) painkiller as part of the procedure for replacing the filling. The residual discomfort following the procedure, including after the numbness wore off, was mild.

[3] = tested on: human patients; settings: cited from earlier work
[4] = tested on: rats; settings: opiate-naïve and morphine-tolerant rats (Watkins 1985); cited from earlier work
[5] = cited from earlier work
[6] = chronic administration (Kellstein 1990); cited from earlier work

## CCCN(CCC)C(=O)C(CCC(=O)O)NC(=O)c1ccccc1 (stereo not shown) [proglumide, Proglumide]
[1]; capsule 100 mg proglumide ninety minutes prior to dental appointment
  Total discomfort: low enough that the subject would be willing to return to a regular dental checkup schedule
[1]; capsule 100 mg proglumide ninety minutes prior to dental appointment, relative to previous dental visits without proglumide
  Subject-reported pain during calculus removal: substantially reduced
[1]; capsule 100 mg proglumide ninety minutes prior, relative to after previous dental checkups
  Post-checkup pain (tender gums, sensitivity while chewing): significantly reduced
[2]
  Residual discomfort following the procedure, including after the numbness wore off: mild
[3]; cancer pain management (Bernstein 1998) and post-operative patients (Lehmann 1989)
  Augmentation of morphine analgesia, treatment vs control groups: no difference
[3]; human patients with chronic pain (McCleane 1998)
  Analgesic efficacy of morphine: enhances
[4]
  Morphine analgesia: potentiates
[5]; Benedetti 1995
  Placebo analgesia: enhance
[5]; Benedetti 2006
  Nocebo hyperalgesia: block
[6]
  Efficacy as a long-term adjunct to opiate treatment for chronic pain: ineffective
